Assay results: patent publication US10059713B2 (Takeda Pharmaceutical Company Limited, priority 2014, dated 2018)

What follows are compounds tested against human GPR43 (Homo sapiens (Human), UniProt O15552) (assay: Ca-Flux functional assay: determination of agonist/positive allosteric modulator (PAM) activity). Conditions: CHO-K1 Gα16 cells stably expressing human GPR43; compound added with EC20 sodium acetate; intracellular Ca2+ by FLIPR; does not distinguish agonist from PAM.
Type: cell-based
In short: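 Agonist or PAM activity read as intracellular Ca2+ rise by FLIPR after adding compound plus EC20 acetate, acetate EC20 set from a prior curve. Cells: CHO-K1 Gα16 with stable human GPR43. EC50 from ten-point half-log curves starting 10 μM.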

Sequence of human GPR43 (O15552 whole entry): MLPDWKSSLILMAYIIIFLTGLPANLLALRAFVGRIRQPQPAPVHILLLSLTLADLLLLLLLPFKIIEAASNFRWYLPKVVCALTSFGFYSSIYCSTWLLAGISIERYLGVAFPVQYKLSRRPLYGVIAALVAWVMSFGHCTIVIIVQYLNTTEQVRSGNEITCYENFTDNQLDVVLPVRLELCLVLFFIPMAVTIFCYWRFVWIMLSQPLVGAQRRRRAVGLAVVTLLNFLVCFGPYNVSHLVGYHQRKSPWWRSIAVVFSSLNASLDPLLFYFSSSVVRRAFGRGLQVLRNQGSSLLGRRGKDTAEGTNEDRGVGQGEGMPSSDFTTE

Row | SMILES | EC50 [µM]
1 | CCC(Oc1nc(C)nc2c(S(=O)(=O)c3ccccc3)c(N)[nH]c12)C1CC1 (stereo not drawn) [Example 243, 7-(benzenesulfonyl)-4-(1-cyclopropylpropoxy)-2-methyl-5H-pyrrolo[3,2-d]pyrimidin-6-amine] | 0.011
2 | Cc1ccccc1-c1ncnc2c(S(=O)(=O)c3ccccc3)c(N)[nH]c12 [Example 108, 7-(benzenesulfonyl)-4-(2-methylphenyl)-5H-pyrrolo[3,2-d]pyrimidin-6-amine] | 0.092
3 | Nc1[nH]c2c(C3CCCCC3)ncnc2c1S(=O)(=O)c1ccc(OC(F)F)cc1 [Example 36, 4-cyclohexyl-7-{[4-(difluoromethoxy)benzene]sulfonyl}-5H-pyrrolo[3,2-d]pyrimidin-6-amine] | 0.087
4 | CC(C)c1ncnc2c(S(=O)(=O)c3ccccc3)c(N)[nH]c12 [Example 15, 7-(benzenesulfonyl)-4-(propan-2-yl)-5H-pyrrolo[3,2-d]pyrimidin-6-amine] | 1.06
5 | CC(Oc1ncnc2c(S(=O)(=O)c3ccccc3)c(N)[nH]c12)C1CC1 (stereo not drawn) [Example 170, 7-(benzenesulfonyl)-4-(1-cyclopropylethoxy)-5H-pyrrolo[3,2-d]pyrimidin-6-amine] | 0.04
6 | COc1ccc(S(=O)(=O)c2c(N)[nH]c3c(N4C[C@@H](C)O[C@@H](C)C4)ncnc23)cc1 [Example 130, 4-[(2R,6S)-2,6-dimethylmorpholin-4-yl]-7-(4-methoxybenzenesulfonyl)-5H-pyrrolo[3,2-d]pyrimidin-6-amine] | 0.02
7 | COc1nc(N2CCOC(C)C2)c2[nH]c(N)c(S(=O)(=O)c3ccccc3F)c2n1 (stereo not drawn) [Example 271, 7-(2-fluorobenzenesulfonyl)-2-methoxy-4-(2-methylmorpholin-4-yl)-5H-pyrrolo[3,2-d]pyrimidin-6-amine] | 0.008
8 | Nc1[nH]c2c(C3=CCCCC3)ncnc2c1S(=O)(=O)c1ccccc1F [Example 38, 4-(cyclohex-1-en-t-yl)-7-[(2-fluorobenzene)sulfonyl]-5H-pyrrolo[3,2-d]pyrimidin-6-amine] | 0.016
9 | Cc1nc(OC2CCOC2(C)C)c2[nH]c(N)c(S(=O)(=O)c3ccccc3)c2n1 (stereo not drawn) [Example 258, 7-(benzenesulfonyl)-4-[(2,2-dimethyloxolan-3-yl)oxy]-2-methyl-5H-pyrrolo[3,2-d]pyrimidin-6-amine] | 0.209
10 | CN(Cc1ccccn1)c1ncnc2c(S(=O)(=O)c3ccccc3)c(N)[nH]c12 [Example 95, 7-(benzenesulfonyl)-4-N-methyl-4-N-(pyridin-2-ylmethyl)-5H-pyrrolo[3,2-d]pyrimidine-4,6-diamine] | 7.13
11 | COc1ccccc1S(=O)(=O)c1c(N)[nH]c2c(N3CCOC(C)C3)ncnc12 (stereo not drawn) [Example 152, 7-(2-methoxybenzenesulfonyl)-4-(2-methylmorpholin-4-yl)-5H-pyrrolo[3,2-d]pyrimidin-6-amine] | 2.15
12 | Cc1nc(OC2CCOC(C)(C)C2)c2[nH]c(N)c(S(=O)(=O)c3ccccc3)c2n1 (stereo not drawn) [Example 253, 7-(benzenesulfonyl)-4-[(2,2-dimethyloxan-4-yl)oxy]-2-methyl-5H-pyrrolo[3,2-d]pyrimidin-6-amine] | 0.133
13 | Nc1[nH]c2c(N3CCOC4(CC4)C3)ncnc2c1S(=O)(=O)c1ccccc1 [Example 151, 7-(benzenesulfonyl)-4-{4-oxa-7-azaspiro[2.5]octan-7-yl}-5H-pyrrolo[3,2-d]pyrimidin-6-amine] | 0.023
14 | CN(c1ncnc2c(S(=O)(=O)c3ccccc3)c(N)[nH]c12)C1CCOCC1 [Example 115, 7-(benzenesulfonyl)-4-N-methyl-4-N-(oxan-4-yl)-5H-pyrrolo[3,2-d]pyrimidine-4,6-diamine] | 0.798
15 | Cc1nc(N2CCO[C@@H](CF)C2)c2[nH]c(N)c(S(=O)(=O)c3ccccc3F)c2n1 [Example 299, 7-(2-fluorobenzenesulfonyl)-4-[(2R)-2-(fluoromethyl)morpholin-4-yl]-2-methyl-5H-pyrrolo[3,2-d]pyrimidin-6-amine] | 0.001
